Reference: US11059815B2, “Synthesis of small molecule histone deacetylase 6 degraders, compounds formed thereby, and pharmaceutical compositions containing them” (Wisconsin Alumni Research Foundation, priority 2018, dated 2021)

Key:
acetylated tubulin = test: Western blot of acetylated tubulin in MM1S cells; format: cell-based, human; details: 100 nM
Source text: (§1) FIGS. 12A, 12B, and 12C are a series of western blots showing that degrader 12d selectively promotes HDAC6 degradation in MM1S cells.
(§2) To further examine the selectivity of the new generation of HDAC6 degraders, compound 12d was compared to SAHA, Next-A, degrader 1 and pan-inhibitor 2 for change of acetylated a-tubulin and acetylated histone H3.
(§3) When the cells reached 90% confluence, they were harvested and plated 1×10^6 cells per well in 6-well plate. After overnight seeding, the cells were treated with a solution of compounds or vehicle in culture medium. The culture medium was removed after treatment and then washed twice with cold PBS. To obtain whole cell lysate, all cells were treated with RIPA lysis buffer (25 mM Tris, pH 7-8, 150 mM NaCl, 0.1% SDS, 0.5% sodium deoxycholate, 1% Triton X-100, protease inhibitor cocktail (Roche, 1 tablet per 10 mL) and 1 mM PMSF) on ice for 10 minutes. Supernatant was collected after spinning down at 16,000 g at 4° C. for 15 minutes. Protein concentration was measured by using the Pierce BCA protein assay (Thermo Fisher Scientific). About 10-40 μg of total protein was mixed with 4× Laemmli Loading Dye (250 mM Tris, pH 6.8, 40% glycerol, 5% SDS, 0.005% bromophenol blue, 4% BME) and heated at 95-100° C. for 5 minutes. The heated sample was then subjected to 7.5-12% SDS-PAGE and transferred to PVDF membrane (Bio-Rad,). The membrane was blocked in 5% non-fat milk (Bio-rad) in TBS-T washing buffer (137 mM NaCl, 20 mM Tris, 0.1% Tween) and then incubated with primary antibodies at 4° C. overnight. […] The Immunoblot was generated by ChemiDoc MP Imaging Systems (Bio-Rad) and analyzed by Image J software (only available for download online at https://imagej.net/Downloads). […]
The activity of all eleven “n+4” VHL-based potential degraders to suppress HDAC6 expression was tested at 100 nM and compared to CRBN degrader 2 in MM1S cells. The resulting cells were analyzed for HDAC6 expression by in-cell ELISA (FIG. 15). […]

acetylated histone H3 = test: Western blot of acetylated histone H3 in MM1S cells; format: cell-based, human
Source text: as §1, §2
as §3, with “Scientific).” for “Scientific). About 10-40 μg of total protein was mixed with 4× Laemmli Loading Dye (250 mM Tris, pH 6.8, 40% glycerol, 5% SDS, 0.005% bromophenol blue, 4% BME) and heated at 95-100° C. for 5 minutes. The heated sample was then subjected to 7.5-12% SDS-PAGE and transferred to PVDF membrane (Bio-Rad,). The membrane was blocked in 5% non-fat milk (Bio-rad) in TBS-T washing buffer (137 mM NaCl, 20 mM Tris, 0.1% Tween) and then incubated with primary antibodies at 4° C. overnight.”

O=C(CCCCCCC(=O)Nc1ccccc1)NO [SAHA, Suberoylanilide hydroxamic acid, reference compound]
change of acetylated tubulin (acetylated tubulin): didn't
change of acetylated histone H3 (acetylated histone H3): strong acetylated histone H3 signal
